Test results: US20230085307A1, “PYRIDAZINONE COMPOUND AND HERBICIDE” (NISSAN CHEMICAL CORPORATION, priority 2019, published 2023)

How the values were obtained:
blackgrass [1] = test: Test Example 4: herbicidal effect by soil treatment (Table 19, symbol J); assay type: in vivo, blackgrass (Alopecurus myosuroides); conditions: amount of applied herbicide 320 g/ha
Outline: (§1)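 Pre-emergence style soil spray: seeds under ~1.5 cm sterilized diluvial soil received a uniform coat of emulsion diluted to the predetermined herbicide amount. Greenhouse 25–30° C; readout at week three on previously defined criteria.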

Chinese sprangletop = test: Test Example 3: herbicidal effect by foliage application, Wagner pot (Table 18, symbol D); assay type: in vivo, chinese sprangletop (Leptochloa chinensis); conditions: amount of applied herbicide 320 g/ha
Outline: (§2)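 Plants were sown in alluvial soil held under 0.1–0.5 cm standing water and grown 14 days in a greenhouse at 25–30 °C. An emulsifiable formulation, water-diluted to the set dose, was then sprayed onto the foliage, and effects were scored three weeks later using previously defined criteria.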

velvetleaf [2] = test: Test Example 5: herbicidal effect by foliage application, plastic box (Table 20, symbol M); assay type: in vivo, velvetleaf (Abutilon theophrasti); conditions: foliage application, AAH 320 g/ha, evaluated three weeks after application
Outline: (§3)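 Plants were sown into sterilized diluvial soil under about 1.5 cm cover and kept in a greenhouse at 25° C. to 30° C. Fourteen days on, foliage received an even spray of the diluted emulsion. Herbicidal or crop effect was judged three weeks afterwards.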

lambsquarters [3] = test: Test Example 4: herbicidal effect by soil treatment (Table 19, symbol O); assay type: in vivo, lambsquarters (Chenopodium album); conditions: amount of applied herbicide 320 g/ha
Outline: as §1

barnyard grass [4] = test: Test Example 5: herbicidal effect by foliage application, plastic box (Table 20, symbol H); assay type: in vivo, barnyard grass (Echinochloa crus-galli); conditions: foliage application, AAH 320 g/ha, evaluated three weeks after application
Outline: as §3

Italian ryegrass [5] = test: Test Example 4: herbicidal effect by soil treatment (Table 19, symbol K); assay type: in vivo, Italian ryegrass (Lolium multiflorum); conditions: amount of applied herbicide 320 g/ha
Outline: as §1

chickweed [6] = test: Test Example 4: herbicidal effect by soil treatment (Table 19, symbol P); assay type: in vivo, common chickweed (Stellaria media); conditions: amount of applied herbicide 320 g/ha
Outline: as §1

green foxtail [7] = test: Test Example 4: herbicidal effect by soil treatment (Table 19, symbol G); assay type: in vivo, green foxtail (Setaria viridis); conditions: amount of applied herbicide 320 g/ha
Outline: as §1

windgrass [8] = test: Test Example 5: herbicidal effect by foliage application, plastic box (Table 20, symbol L); assay type: in vivo, windgrass (Apera spica-venti); conditions: foliage application, AAH 320 g/ha, evaluated three weeks after application
Outline: as §3

rice flat sedge = test: Test Example 3: herbicidal effect by foliage application, Wagner pot (Table 18, symbol E); assay type: in vivo, rice flat sedge (Cyperus iria); conditions: amount of applied herbicide 320 g/ha
Outline: as §2

redroot pigweed [9] = test: Test Example 4: herbicidal effect by soil treatment (Table 19, symbol N); assay type: in vivo, redroot pigweed (Amaranthus retroflexus); conditions: amount of applied herbicide 320 g/ha
Outline: as §1

blackgrass [10] = test: Test Example 5: herbicidal effect by foliage application, plastic box (Table 20, symbol J); assay type: in vivo, blackgrass (Alopecurus myosuroides); conditions: foliage application, AAH 320 g/ha, evaluated three weeks after application
Outline: as §3

wild oat [11] = test: Test Example 5: herbicidal effect by foliage application, plastic box (Table 20, symbol I); assay type: in vivo, wild oat (Avena fatua); conditions: foliage application, AAH 320 g/ha, evaluated three weeks after application
Outline: as §3

barnyard grass [12] = test: Test Example 3: herbicidal effect by foliage application, Wagner pot (Table 18, symbol H); assay type: in vivo, barnyard grass (Echinochloa crus-galli); conditions: amount of applied herbicide 320 g/ha
Outline: as §2

velvetleaf [13] = test: Test Example 4: herbicidal effect by soil treatment (Table 19, symbol M); assay type: in vivo, velvetleaf (Abutilon theophrasti); conditions: amount of applied herbicide 320 g/ha
Outline: as §1

persian speedwell [14] = test: Test Example 4: herbicidal effect by soil treatment (Table 19, symbol R); assay type: in vivo, Persian speedwell (Veronica persica); conditions: amount of applied herbicide 320 g/ha
Outline: as §1

barnyard grass [15] = test: Test Example 4: herbicidal effect by soil treatment (Table 19, symbol H); assay type: in vivo, barnyard grass (Echinochloa crus-galli); conditions: amount of applied herbicide 320 g/ha
Outline: as §1

persian speedwell [16] = test: Test Example 5: herbicidal effect by foliage application, plastic box (Table 20, symbol R); assay type: in vivo, Persian speedwell (Veronica persica); conditions: foliage application, AAH 320 g/ha, evaluated three weeks after application
Outline: as §3

southern crabgrass [17] = test: Test Example 4: herbicidal effect by soil treatment (Table 19, symbol F); assay type: in vivo, southern crabgrass (Digitaria ciliaris); conditions: amount of applied herbicide 320 g/ha
Outline: as §1

lambsquarters [18] = test: Test Example 5: herbicidal effect by foliage application, plastic box (Table 20, symbol O); assay type: in vivo, lambsquarters (Chenopodium album); conditions: foliage application, AAH 320 g/ha, evaluated three weeks after application
Outline: as §3

southern crabgrass [19] = test: Test Example 5: herbicidal effect by foliage application, plastic box (Table 20, symbol F); assay type: in vivo, southern crabgrass (Digitaria ciliaris); conditions: foliage application, AAH 320 g/ha, evaluated three weeks after application
Outline: as §3

windgrass [20] = test: Test Example 4: herbicidal effect by soil treatment (Table 19, symbol L); assay type: in vivo, windgrass (Apera spica-venti); conditions: amount of applied herbicide 320 g/ha
Outline: as §1

green foxtail [21] = test: Test Example 5: herbicidal effect by foliage application, plastic box (Table 20, symbol G); assay type: in vivo, green foxtail (Setaria viridis); conditions: foliage application, AAH 320 g/ha, evaluated three weeks after application
Outline: as §3

redroot pigweed [22] = test: Test Example 5: herbicidal effect by foliage application, plastic box (Table 20, symbol N); assay type: in vivo, redroot pigweed (Amaranthus retroflexus); conditions: foliage application, AAH 320 g/ha, evaluated three weeks after application
Outline: as §3

Italian ryegrass [23] = test: Test Example 5: herbicidal effect by foliage application, plastic box (Table 20, symbol K); assay type: in vivo, Italian ryegrass (Lolium multiflorum); conditions: foliage application, AAH 320 g/ha, evaluated three weeks after application
Outline: as §3

wild oat [24] = test: Test Example 4: herbicidal effect by soil treatment (Table 19, symbol I); assay type: in vivo, wild oat (Avena fatua); conditions: amount of applied herbicide 320 g/ha
Outline: as §1

chickweed [25] = test: Test Example 5: herbicidal effect by foliage application, plastic box (Table 20, symbol P); assay type: in vivo, common chickweed (Stellaria media); conditions: foliage application, AAH 320 g/ha, evaluated three weeks after application
Outline: as §3

Cc1nn(C)c(=O)c(-c2c(-c3ccc(Cl)cc3Cl)sc3ccc(F)cc23)c1O [2-346]
herbicidal effect on J: blackgrass (blackgrass [1]): 0 (Herbicidal rate of 5% or less (almost no effect)) | herbicidal effect on D: Chinese sprangletop (Chinese sprangletop): 3 (Herbicidal rate of 40% or more and less than 70%) | M: velvetleaf, herbicidal effect (criteria 0-5) (velvetleaf [2]): 1 (Herbicidal rate of 5% or more and less than 20%) | herbicidal effect on O: lambsquarters (lambsquarters [3]): 3 (Herbicidal rate of 40% or more and less than 70%) | H: barnyard grass, herbicidal effect (criteria 0-5) (barnyard grass [4]): 0 (Herbicidal rate of 5% or less (almost no effect)) | herbicidal effect on K: Italian ryegrass (Italian ryegrass [5]): 0 (Herbicidal rate of 5% or less (almost no effect)) | herbicidal effect on P: chickweed (chickweed [6]): 0 (Herbicidal rate of 5% or less (almost no effect)) | herbicidal effect on G: green foxtail (green foxtail [7]): 0 (Herbicidal rate of 5% or less (almost no effect)) | L: windgrass, herbicidal effect (criteria 0-5) (windgrass [8]): 2 (Herbicidal rate of 20% or more and less than 40%) | herbicidal effect on E: rice flat sedge (rice flat sedge): 1 (Herbicidal rate of 5% or more and less than 20%) | herbicidal effect on N: redroot pigweed (redroot pigweed [9]): 0 (Herbicidal rate of 5% or less (almost no effect)) | J: blackgrass, herbicidal effect (criteria 0-5) (blackgrass [10]): 0 (Herbicidal rate of 5% or less (almost no effect)) | I: wild oat, herbicidal effect (criteria 0-5) (wild oat [11]): 0 (Herbicidal rate of 5% or less (almost no effect)) | herbicidal effect on H: barnyard grass (barnyard grass [12]): 4 (Herbicidal rate of 70% or more and less than 90%) | herbicidal effect on M: velvetleaf (velvetleaf [13]): 0 (Herbicidal rate of 5% or less (almost no effect)) | herbicidal effect on R: persian speedwell (persian speedwell [14]): 0 (Herbicidal rate of 5% or less (almost no effect)) | herbicidal effect on H: barnyard grass (barnyard grass [15]): 0 (Herbicidal rate of 5% or less (almost no effect)) | R: persian speedwell, herbicidal effect (criteria 0-5) (persian speedwell [16]): 4 (Herbicidal rate of 70% or more and less than 90%) | herbicidal effect on F: southern crabgrass (southern crabgrass [17]): 0 (Herbicidal rate of 5% or less (almost no effect)) | O: lambsquarters, herbicidal effect (criteria 0-5) (lambsquarters [18]): 2 (Herbicidal rate of 20% or more and less than 40%) | F: southern crabgrass, herbicidal effect (criteria 0-5) (southern crabgrass [19]): 0 (Herbicidal rate of 5% or less (almost no effect)) | herbicidal effect on L: windgrass (windgrass [20]): 0 (Herbicidal rate of 5% or less (almost no effect)) | G: green foxtail, herbicidal effect (criteria 0-5) (green foxtail [21]): 0 (Herbicidal rate of 5% or less (almost no effect)) | N: redroot pigweed, herbicidal effect (criteria 0-5) (redroot pigweed [22]): 3 (Herbicidal rate of 40% or more and less than 70%) | K: Italian ryegrass, herbicidal effect (criteria 0-5) (Italian ryegrass [23]): 3 (Herbicidal rate of 40% or more and less than 70%) | herbicidal effect on I: wild oat (wild oat [24]): 0 (Herbicidal rate of 5% or less (almost no effect)) | P: chickweed, herbicidal effect (criteria 0-5) (chickweed [25]): 5 (Herbicidal rate of 90% or more (almost completely withered))
